Data on 14 compounds can be found in patent US5318971A, “3-Substituted-1-aryl-2(1H)-quinolones useful as anti-allergy and anti-inflammatory agents” (Schering Corporation, priority 1991, dated 1994).

Read-outs that look alike come from different tables or passages of the source. Bounds are passed on as bounds.

One assay concerns rat pleural cavity. Description: Reverse Passive Arthus Pleurisy Reaction (RPAPR), pleural exudate cells and fluid. The conditions noted are these: po; for inhibition in vivo at 5 mg/kg: 5 mg/kg p.o.; for inhibition in vivo at 10 mg/kg: 10 mg/kg p.o.; for inhibition in vivo at 25 mg/kg: 25 mg/kg p.o. Format: in vivo. On the procedure:
(§1) RPAPR was produced by a modification of the Yamamoto et al. method (Agents and Actions 5: 374-377, 1975). Thirty (30) minutes prior to lightly anesthesizing rats with ether and then sensitizing them by injecting the animals i.v. with 0.33 mg of bovine serum albumin (BSA) dissolved in 0.2 ml sterile saline, a test compound was administered per os (p.o.) as indicated in Table 1. Thirty minutes later, the rats were again lightly anesthetized and challenged intrapleurally with a rabbit anti-BSA antibody (Organon), containing 1.2 mg antibody protein, dissolved in 0.2 ml sterile saline. Four hours after challenge the rats were sacrificed by CO2 inhalation, their pleural cavities exposed and the exudate harvested. The total volumes of each exudate was recorded and the total number of leukocytes determined using a Coulter Counter ZM.

Assay [1] concerns SRS-A (leukotriene) release, guinea pig lung. Description: SRSA Release in vitro (leukotriene release from sensitized guinea pig lung fragments). Format: cell-based. The conditions noted are these: Cavia porcellus, ovalbumin challenge, read-out: SRSA Release in vitro % l. As for the experimental part:
First, kill sensitized guinea pigs by a blow to the head, remove the lungs and clean them of visible connective tissue, trachea and large blood vessels. Slice the lungs from individual animals into fragments approximately 1 mm in thickness using a Mcllwain tissue chopper and wash them with oxygenated Tyrode's buffer. Transfer weighted allquots (approximately 400 mg wet weight) of lung into vials containing 2 ml of fresh Tyrode's solution (containing 10 mM cysteine) and incubate in the presence or absence of test compound for 12 minutes at 37° C., challenge the tissues with 20 μg ovalbumin/ml (final concentration) and incubate for 15 minutes.
To measure leukotriene release, extract an aliquot of supernatant fluid with 4 volumes of 100% ethanol. After removal of the precipitated protein, dry the clear fluid under a stream of N2 gas. Measure the leukotriene content by a radioimmunoassay using [^3 H]LTC4 (leukotriene C4) and antiserum obtained from New England Nuclear. Calculate percent inhibition of leukotriene release by comparing for each lung the release in the presence of the test compound to that in the absence of test compound.

A further assay has as its system LTE4 (Leukotriene E4). The assay can be described thus: Reverse Passive Arthus Pleurisy Reaction (RPAPR), LTE4 in pleural exudate. Format: in vivo. As to conditions: rat, 25 mg/kg p.o.; radioimmunoassay of exudate. As for the experimental part: as §1
(§2) The exudate were then centrifuged and the supernatants decanted. Four volumes of cold 95% acetone was added for each volume of exudate. One half hour later the samples were again centrifuged for 10 minutes. Immediately after, 5 ml of the supernatant was removed and dried under nitrogen. These samples were kept in a freezer until LTE4 and TxB2 were determined using a radioimmune assay kit from Amersham.
LTE4 = Leukotriene E4 a measure of lipoxygenase (LO) derived
(§3) mediators of inflammation.

For another assay, the system named is TXB2 (Thromboxane B2). Description: Reverse Passive Arthus Pleurisy Reaction (RPAPR), TxB2 in pleural exudate. Format: in vivo. As to conditions: rat, 25 mg/kg p.o.; radioimmunoassay of exudate. On the procedure:
as §1, §2
TXB2 = Thromboxane B2 a measure of cyclooxygenase (CO) derived
as §3

Assay [2] relates to antigen-induced SRS-A mediated bronchoconstriction. The assay can be described thus: Guinea Pig Bronchospasm (anaphylactic bronchospasm in sensitized guinea pigs). As to conditions: 5 mg/kg p.o., ovalbumin aerosol challenge. Format: in vivo. As for the experimental part: The anti-allergy activity of the compounds of this invention is identified by tests which measure a compound's inhibition of anaphylactic bronchospasms in sensitized guinea pigs having antigen-induced SRS-A mediated bronchoconstriction. Allergic bronchospasms were measured in actively sensitized guinea pigs by a modification of the procedure of Konzett and Rossler, Arch. Expt. Pathol. Pharmakol., 194, pp. 71-74 (1940). Male Hartly guinea pigs were sensitized with 5 mg ovalbumin injected ip and 5 mg injected sc in 1 ml saline on day 1 and 5 mg ovalbumin injected ip on day 4. To measure anaphylactic bronchospasm, sensitized guinea pigs were fasted overnight and the following morning were anesthetized with 0.9 mL/kg ip dialurethane. The trachea and jugular vein were cannulated and the animals were ventilated by a Harvard rodent respirator. A side arm to the tracheal cannula was connected to a Harvard pressure transducer to obtain a continuous measure of intratracheal pressure. An increase in intratracheal pressure was taken as a measure of bronchoconstriction. Each guinea pig was injected i.v. with 1 mg/kg propranolol, 5 mg/kg indomethacin and 2 mg/kg mepyramine given together in a volume of 1 mL/kg. […] Bronchoconstriction was measured as the peak increase in intratracheal pressure occurring within 15 minutes after antigen challenge.

Where [3] appears, read: Leukocyte, leukocytes in exudate 4 h after challenge, read-out: % Inhibition Cells.
Setting [4] is: exudate volume 4 h after challenge, read-out: % Inhibition Fluid.

`O=c1c(Cn2cncn2)cc2ccccc2n1-c1ccccc1` [Formula 2]: the inhibition in vivo at 5 mg/kg in the assay on rat pleural cavity (setting [3]) was 64%; with rat pleural cavity (setting [4]), 42%. In addition, the inhibition at 30 µM in assay [1] is 83%.
In the case of `O=c1c(Cn2cnnn2)cc2ccccc2n1-c1ccccc1` [Formula 3], the inhibition in vivo at 10 mg/kg in the assay on rat pleural cavity (setting [3]) worked out at 75%; with rat pleural cavity (setting [4]) it was 50%. Further, the inhibition at 30 µM in assay [1] was 83%.
As to `Cn1ccnc1SCc1cc2ccccc2n(-c2ccccc2)c1=O` [Formula 48, 1-Phenyl-3-(1-Methyl-1H-imidazol-2-ylthiomethyl)-2(1H)-quinolone], the inhibition in vivo at 25 mg/kg was determined as 75% with rat pleural cavity (setting [3]) and 40% with rat pleural cavity (setting [4]). Further, the “% Inhibition LTE4” value in the assay on LTE4 (Leukotriene E4) was 57%. The “% Inhibition TXB2” value in the assay on TXB2 (Thromboxane B2) was 67%.
Consider `O=c1c(CCn2ccnc2)cc2ccccc2n1-c1ccccc1` [Formula 49], for which the results for the inhibition in vivo at 25 mg/kg with rat pleural cavity (setting [3]) and with rat pleural cavity (setting [4]) were 86% and 53%, respectively.
For `CCc1nccn1Cc1cc2ccccc2n(-c2ccccc2)c1=O` [Formula 50] the same measures were less than 10% and less than 10%.
On the same counts, the results for `C[S+]([O-])Cc1cc2ccccc2n(Cc2ccccc2)c1=O` (stereo not shown) [Formula 51] are 22% and less than 10%.
With `O=c1c(Cn2cncn2)cc2ccccc2n1Cc1ccccc1` [Formula 52], the inhibition in vivo at 25 mg/kg in the assay on rat pleural cavity (setting [3]) was 44%; in the assay on rat pleural cavity (setting [4]), 46%.
Consider `O=c1c(Cn2cncn2)cc2ccccc2n1-c1ccc(Cl)cc1` [Formula 53], for which the inhibition in vivo at 25 mg/kg with rat pleural cavity (setting [3]) was less than 10%; with rat pleural cavity (setting [4]), 18%. The “G.P. Bronchospasm % l” value in assay [2] was determined as 18%. The inhibition at 30 µM in assay [1] came out at 76%.
As to `O=c1c(Cn2cncn2)cc2cc(Br)ccc2n1-c1ccccc1` [Formula 54, 6-bromo-1-phenyl-3-(1H-1,2,4-triazol-1-ylmethyl)-2(1H)-quinolone], the inhibition in vivo at 25 mg/kg in the assay on rat pleural cavity (setting [3]) and in the assay with rat pleural cavity (setting [4]) was less than 10% each time.
Take `O=c1c(Cn2cncn2)cc2ccc(Cl)cc2n1-c1ccccc1` [Formula 55, 1-phenyl-7-chloro-3-(1H-1,2,4-triazol-1-ylmethyl)-2(1H)-quinolone]: the inhibition in vivo at 25 mg/kg in the assay on rat pleural cavity (setting [3]) and with rat pleural cavity (setting [4]) was less than 10% throughout.
Regarding `O=c1c(Cn2cncn2)cc2ccccc2n1-c1cccc(Cl)c1` [Formula 56, (1-3-Chlorophenyl)-3-(1H-1,2,4-Triazol-1-ylmethyl)-2(1H)-Quinolone], the figures for the inhibition in vivo at 5 mg/kg with rat pleural cavity (setting [3]) and in the assay with rat pleural cavity (setting [4]) were 56% and 63%, respectively.
As to `O=c1c(Cn2cccn2)cc2ccccc2n1-c1ccccc1` [Formula 57], the values for the inhibition in vivo at 25 mg/kg with rat pleural cavity (setting [3]) and in the assay on rat pleural cavity (setting [4]) were 20% and 19%, respectively.
Consider `CC(=O)NCc1cc2ccccc2n(-c2ccccc2)c1=O` [Formula 58], for which the inhibition in vivo at 25 mg/kg was found to be 62% in the assay with rat pleural cavity (setting [3]) and 53% in the assay on rat pleural cavity (setting [4]).
For `CC(=O)N1CCN(Cc2cc3ccccc3n(-c3ccccc3)c2=O)CC1` [Formula 59] the same measures were 68% and 68%.
